Source: PMC9220178, “Preclinical Characterization of Antioxidant Quinolyl Nitrone QN23 as a New Candidate for the Treatment of Ischemic Stroke” (Antioxidants, 2022)

Test system: Wistar male rats subjected to global cerebral ischemia
Assay: Imaging of cerebral ROS with dihydroethidium (DHE) in brain ischemia
Type: in vivo, rat
Conditions: 2.0 mg/kg i.v. at reperfusion onset; CA1 and cortical regions; 6 h of reperfusion
Protocol: In order to evaluate the antioxidant capacity of QN23 in vivo, the fluorescent probe dihydroethidium (DHE) was used for superoxide and hydrogen peroxide detection according to the experimental procedure described in [29], with minor modifications. Animals subjected to global cerebral ischemia (Wistar male rats of 280–300 g) were treated with vehicle or QN23 at the onset of the reperfusion period, and after 2 h of reperfusion DHE (3.0 mg/kg; 0.9 mg/mL in DMSO/polyethylene glycol 400/saline, 2.5:50:47.5 v/v) was intravenously injected (1 mL). DHE (Sigma-Aldrich, Merck KGaA, Darmstadt, Germany) was freshly weighted and dissolved just before the injection to avoid undesired air-driven oxidation. At 6 h of reperfusion after ischemia (4 h after DHE injection), the animals were euthanized and perfused with saline and 4% (w/v) paraformaldehyde in PBS. […]
Hippocampal CA1 subfields and cortical fields from a given brain section were randomly selected and analyzed with fluorescence microscopy (20× objective), and the selected images (425 × 340 μm) were digitized with a color CCD camera (1280 × 1024 pixel resolution). Fluorescence intensity (in red) of ROS-reacted DHE was evaluated and normalized to the number of DAPI-stained nuclei by using an image analysis software (Image-J 1.53). At least four images per brain sample, and 3 to 6 brains per experimental group, were evaluated and averaged. […]

## COc1ccc2nc(Cl)c(/C=[N+](\[O-])C(C)(C)C)cc2c1 [QN23, (Z)-N-tert-Butyl-1-(2-chloro-6-methoxyquinolin-3-yl)methanimine Oxide]
  Fluorescence intensity of ROS-reacted DHE compared with vehicle: decreased significantly
